PMC6917776, “Discovery of a chemical probe for PRDM9” (Nature Communications, 2019)
Values joined by “and” are separate entries in the source; they are usually repeats but may differ in a detail not shown here. Equal entries are not always repeated.

Columns and labels:
[1] = target: PRDM10 (Homo sapiens, UniProt Q9NQV6); test: DSF thermal stabilisation, PRDM selectivity; format: binding; conditions: 250 µM MRK-740; 2 mM SAM
Protocol: (§1) DSF measurements were performed as previously described[21] using a Light Cycler 480 II instrument from Roche Applied Science. All proteins tested in these selectivity experiments were used at final concentration of 0.02 mg mL^−1 in a 0.1 M HEPES, pH 7.5 and 150 mM NaCl buffer in the presence of 2 mM SAM. Sypro Orange was purchased from Invitrogen as a 5000 × stock solution (concentration not specified by vendor) and was diluted 1:1000 to yield a 5 × working concentration. The temperature scan curves were fitted to a Boltzmann sigmoid function, and the Tm values were obtained from the midpoint of the transition.

[2] = target: PRDM1 (Homo sapiens, UniProt O75626); test: DSF thermal stabilisation, PRDM selectivity; format: binding; conditions: 250 µM MRK-740; 2 mM SAM
Protocol: as §1

[3] = target: PRDM6 (Homo sapiens, UniProt Q9NQX0); test: DSF thermal stabilisation, PRDM selectivity; format: binding; conditions: 250 µM MRK-740; 2 mM SAM
Protocol: as §1

[4] = target: PRDM14 (Homo sapiens, UniProt Q9GZV8); test: DSF thermal stabilisation, PRDM selectivity; format: binding; conditions: 250 µM MRK-740; 2 mM SAM
Protocol: as §1

[5] = target: PRDM3 (Homo sapiens, UniProt Q03112); test: DSF thermal stabilisation, PRDM selectivity; format: binding; conditions: 250 µM MRK-740; 2 mM SAM
Protocol: as §1

[6] = target: PRDM8 (Homo sapiens, UniProt Q9NQV8); test: DSF thermal stabilisation, PRDM selectivity; format: binding; conditions: 250 µM MRK-740; 2 mM SAM
Protocol: as §1

[7] = target: PRDM13 (Homo sapiens, UniProt Q9H4Q3); test: DSF thermal stabilisation, PRDM selectivity; format: binding; conditions: 250 µM MRK-740; 2 mM SAM
Protocol: as §1

[8] = target: PRDM2 (Homo sapiens, UniProt Q13029); test: DSF thermal stabilisation, PRDM selectivity; format: binding; conditions: 250 µM MRK-740; 2 mM SAM
Protocol: as §1

[9] = target: PRDM11 (Homo sapiens, UniProt Q9NQV5); test: DSF thermal stabilisation, PRDM selectivity; format: binding; conditions: 250 µM MRK-740; 2 mM SAM
Protocol: as §1

[10] = target: PRDM12 (Homo sapiens, UniProt Q9H4Q4); test: DSF thermal stabilisation, PRDM selectivity; format: binding; conditions: 250 µM MRK-740; 2 mM SAM
Protocol: as §1

[11] = target: PRDM16 (Homo sapiens, UniProt Q9HAZ2); test: DSF thermal stabilisation, PRDM selectivity; format: binding; conditions: 250 µM MRK-740; 2 mM SAM
Protocol: as §1

[12] = target: PRDM9 (Homo sapiens, UniProt Q9NQV7); test: PRDM9 cellular assay: H3K4me3 of endogenous histone H3 in HEK293T cells (western blot); format: cell-based; conditions: 20 h, technical replicates
Protocol: HEK293T (kind gift from Sam Benchimol, York University), or MCF7 (ATCC® HTB-22™), cells were plated (12 well plates) and next day co-transfected with 0.1 (HEK293T) or 0.2 (MCF7) µg of GFP-tagged histone H3 and with 0.1 (HEK293T) or 0.2 (MCF7) µg of Flag-tagged PRDM9/PRDM9 catalytic mutant (Y357S) and 0.8 or 0.6 µg of empty vector using JetPRIME® transfection reagent, following manufacturer instructions. After 4 h media was removed and cells were treated with compounds for 20 h. Next day, cells were lysed in lysis buffer (20 mM Tris-HCl pH 8, 150 mM NaCl, 1 mM EDTA, 10 mM MgCl2, 0.5% TritonX-100, 12.5 U mL^−1 benzonase (Sigma), complete EDTA-free protease inhibitor cocktail (Roche)). After 2 min incubation at RT, SDS was added to final 1% concentration. Cell lysates were analyzed in western blot for GFP and H3K4me3 levels. All cell lines were mycoplasma negative, as determined by MycoAlert™ Mycoplasma Detection Kit (Lonza).
Total cell lysates were resolved in 4–12% Bis-Tris Protein Gels (Invitrogen) and transferred in for 1.5 h (80 V) onto PVDF membrane (Millipore) in Tris-Glycine transfer buffer containing 20% MeOH and 0.05% SDS. Blots were blocked for 1 h in blocking buffer (5% milk in PBS) and incubated with primary antibodies anti-GFP (1:3000, Clontech # 632381), anti-H3K4me3 (1:1000, Millipore, #04-745), anti-histone H3 (1:2000, #ab10799, Abcam), anti-Flag (1:5000, #F4799, Sigma) in blocking buffer (5% BSA in 0.1% Tween 20 PBS) overnight at 4 °C. After five washes with 0.1% Tween 20 PBS the blots were incubated with goat-anti rabbit (IR800) and donkey anti-mouse (IR 680) antibodies (1:5000) in Odyssey Blocking Buffer (LiCor) for 1 h at RT and washed five times with 0.1% Tween 20 PBS. The signal was read on an Odyssey scanner (LiCor) at 800 nm and 700 nm and analyzed with Image Studio Ver.5.2 software. […]
endogenous histone H3. (a) Western blot analysis of cellular lysates prepared from HEK293T cells transfected with PRDM9-FLAG and treated with the indicated concentration of compound for 20 h. Mut denotes PRDM9 catalytic mutant (Y357S). (b) Non-linear fit of H3K4me3 fluorescence intensities normalized to intensities of histone H3 is shown. The results are MEAN +/- SEM of n=3 (technical replicates). Source data are provided as a Source Data file .
(§2) (1 picture or pasted object on this page, not shown here)

[13] = tested on: MCF7 cells; test: Cell growth, IncuCyte ZOOM cell number; format: cell-based; conditions: for Cell growth (Cell#): MCF7, 5 day treatment, technical replicates
Protocol: HEK293T or MCF7 cells were seeded on 96-well plates and the following day treated with compounds for indicated time. Cell number was determined with Vybrant® DyeCycle™ Green using IncuCyte™ ZOOM live cell imaging device (Essen Bioscence) and analyzed with IncuCyte™ ZOOM (2015A) software.
(top graphs) and MCF7 cells (bottom graph). Cells were treated with compounds for 2 and 4 days or 5 days in case of MCF7. Cell number was measured using IncuCyte™ ZOOM live cell imaging device. The results are MEAN +/- SEM, n=3 (technical replicates). Source data are provided as a Source Data file.
as §2

Chain of PRDM9 (Q9NQV7 whole entry): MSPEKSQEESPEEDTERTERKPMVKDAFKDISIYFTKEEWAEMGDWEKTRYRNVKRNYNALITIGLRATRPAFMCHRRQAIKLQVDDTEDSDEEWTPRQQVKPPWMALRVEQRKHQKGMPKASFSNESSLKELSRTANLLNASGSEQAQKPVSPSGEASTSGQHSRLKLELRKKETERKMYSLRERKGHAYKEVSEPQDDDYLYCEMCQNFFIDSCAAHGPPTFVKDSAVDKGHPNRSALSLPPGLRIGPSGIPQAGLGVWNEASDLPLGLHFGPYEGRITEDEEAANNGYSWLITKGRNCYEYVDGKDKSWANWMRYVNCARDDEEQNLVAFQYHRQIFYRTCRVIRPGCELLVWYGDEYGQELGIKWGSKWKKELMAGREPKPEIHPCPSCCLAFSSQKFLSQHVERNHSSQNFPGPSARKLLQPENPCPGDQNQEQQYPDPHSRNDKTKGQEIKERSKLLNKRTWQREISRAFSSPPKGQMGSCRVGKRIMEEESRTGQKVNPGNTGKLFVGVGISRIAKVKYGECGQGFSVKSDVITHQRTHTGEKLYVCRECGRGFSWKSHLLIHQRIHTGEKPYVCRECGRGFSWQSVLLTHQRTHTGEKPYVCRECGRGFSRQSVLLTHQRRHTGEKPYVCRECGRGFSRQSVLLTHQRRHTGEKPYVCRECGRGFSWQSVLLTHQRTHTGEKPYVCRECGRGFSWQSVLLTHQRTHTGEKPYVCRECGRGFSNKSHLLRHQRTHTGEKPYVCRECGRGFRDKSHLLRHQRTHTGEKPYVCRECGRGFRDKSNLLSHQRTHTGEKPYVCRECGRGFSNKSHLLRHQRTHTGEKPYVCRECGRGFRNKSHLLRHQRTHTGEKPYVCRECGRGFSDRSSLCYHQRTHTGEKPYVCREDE
Chain of PRDM6 (Q9NQX0 whole entry): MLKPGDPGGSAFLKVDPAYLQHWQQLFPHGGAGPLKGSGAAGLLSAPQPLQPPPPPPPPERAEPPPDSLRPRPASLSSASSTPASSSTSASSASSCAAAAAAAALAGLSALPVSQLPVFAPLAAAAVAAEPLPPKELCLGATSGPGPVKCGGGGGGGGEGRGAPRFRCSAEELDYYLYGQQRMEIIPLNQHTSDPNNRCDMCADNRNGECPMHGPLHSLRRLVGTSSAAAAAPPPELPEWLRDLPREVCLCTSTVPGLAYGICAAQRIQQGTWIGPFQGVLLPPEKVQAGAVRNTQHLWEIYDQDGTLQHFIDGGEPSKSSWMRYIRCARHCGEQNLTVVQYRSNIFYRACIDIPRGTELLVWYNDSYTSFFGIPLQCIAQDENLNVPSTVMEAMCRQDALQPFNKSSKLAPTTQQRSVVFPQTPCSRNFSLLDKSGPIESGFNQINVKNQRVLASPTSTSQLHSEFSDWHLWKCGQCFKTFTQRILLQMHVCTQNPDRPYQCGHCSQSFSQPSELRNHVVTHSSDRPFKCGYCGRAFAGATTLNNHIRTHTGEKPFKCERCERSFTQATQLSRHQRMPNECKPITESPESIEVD
Chain of PRDM11 (Q9NQV5 whole entry): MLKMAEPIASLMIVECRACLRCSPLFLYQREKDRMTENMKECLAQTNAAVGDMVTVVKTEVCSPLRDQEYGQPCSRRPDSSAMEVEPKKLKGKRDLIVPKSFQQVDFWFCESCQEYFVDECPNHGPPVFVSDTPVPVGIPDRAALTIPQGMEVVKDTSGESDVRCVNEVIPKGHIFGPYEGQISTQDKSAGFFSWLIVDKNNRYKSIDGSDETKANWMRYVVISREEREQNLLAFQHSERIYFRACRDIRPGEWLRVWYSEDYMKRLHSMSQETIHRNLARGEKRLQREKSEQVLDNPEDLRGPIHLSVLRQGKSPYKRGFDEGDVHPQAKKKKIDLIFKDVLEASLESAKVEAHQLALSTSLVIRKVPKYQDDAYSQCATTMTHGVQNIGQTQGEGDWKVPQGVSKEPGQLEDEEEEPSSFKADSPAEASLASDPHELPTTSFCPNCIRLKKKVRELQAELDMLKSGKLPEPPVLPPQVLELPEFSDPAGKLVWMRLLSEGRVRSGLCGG
Chain of PRDM16 (Q9HAZ2 whole entry): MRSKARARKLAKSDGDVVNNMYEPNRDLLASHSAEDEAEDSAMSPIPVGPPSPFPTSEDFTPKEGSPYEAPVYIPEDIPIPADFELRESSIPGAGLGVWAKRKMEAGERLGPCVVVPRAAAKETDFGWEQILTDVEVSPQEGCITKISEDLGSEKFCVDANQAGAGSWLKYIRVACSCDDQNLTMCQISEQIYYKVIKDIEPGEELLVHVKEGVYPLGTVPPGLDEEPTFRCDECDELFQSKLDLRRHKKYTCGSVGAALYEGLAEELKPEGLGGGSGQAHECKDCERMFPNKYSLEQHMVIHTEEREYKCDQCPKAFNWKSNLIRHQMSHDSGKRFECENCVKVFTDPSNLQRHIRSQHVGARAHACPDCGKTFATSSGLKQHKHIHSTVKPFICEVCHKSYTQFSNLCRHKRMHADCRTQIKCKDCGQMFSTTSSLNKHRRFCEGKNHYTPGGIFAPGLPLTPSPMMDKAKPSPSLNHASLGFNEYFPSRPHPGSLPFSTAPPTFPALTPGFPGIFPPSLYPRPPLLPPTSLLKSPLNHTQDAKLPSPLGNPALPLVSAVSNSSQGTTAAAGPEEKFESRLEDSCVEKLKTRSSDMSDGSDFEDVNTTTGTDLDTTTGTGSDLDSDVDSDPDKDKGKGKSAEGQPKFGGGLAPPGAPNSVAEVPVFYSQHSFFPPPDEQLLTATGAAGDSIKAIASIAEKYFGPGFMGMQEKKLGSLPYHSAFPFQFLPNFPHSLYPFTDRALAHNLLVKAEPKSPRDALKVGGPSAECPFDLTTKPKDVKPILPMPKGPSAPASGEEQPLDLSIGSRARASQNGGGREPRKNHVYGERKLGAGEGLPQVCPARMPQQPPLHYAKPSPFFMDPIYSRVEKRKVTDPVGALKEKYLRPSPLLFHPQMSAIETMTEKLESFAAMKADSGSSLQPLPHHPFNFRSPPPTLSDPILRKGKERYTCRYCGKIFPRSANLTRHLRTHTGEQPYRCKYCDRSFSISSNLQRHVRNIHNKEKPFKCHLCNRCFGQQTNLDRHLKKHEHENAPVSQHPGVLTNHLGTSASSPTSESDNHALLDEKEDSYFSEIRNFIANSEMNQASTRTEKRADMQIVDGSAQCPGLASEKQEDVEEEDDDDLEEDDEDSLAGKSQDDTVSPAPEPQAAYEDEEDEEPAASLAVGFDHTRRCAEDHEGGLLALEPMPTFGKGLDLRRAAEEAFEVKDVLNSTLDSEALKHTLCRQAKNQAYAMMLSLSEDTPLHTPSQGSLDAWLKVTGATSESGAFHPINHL
Chain of PRDM2 (Q13029 whole entry): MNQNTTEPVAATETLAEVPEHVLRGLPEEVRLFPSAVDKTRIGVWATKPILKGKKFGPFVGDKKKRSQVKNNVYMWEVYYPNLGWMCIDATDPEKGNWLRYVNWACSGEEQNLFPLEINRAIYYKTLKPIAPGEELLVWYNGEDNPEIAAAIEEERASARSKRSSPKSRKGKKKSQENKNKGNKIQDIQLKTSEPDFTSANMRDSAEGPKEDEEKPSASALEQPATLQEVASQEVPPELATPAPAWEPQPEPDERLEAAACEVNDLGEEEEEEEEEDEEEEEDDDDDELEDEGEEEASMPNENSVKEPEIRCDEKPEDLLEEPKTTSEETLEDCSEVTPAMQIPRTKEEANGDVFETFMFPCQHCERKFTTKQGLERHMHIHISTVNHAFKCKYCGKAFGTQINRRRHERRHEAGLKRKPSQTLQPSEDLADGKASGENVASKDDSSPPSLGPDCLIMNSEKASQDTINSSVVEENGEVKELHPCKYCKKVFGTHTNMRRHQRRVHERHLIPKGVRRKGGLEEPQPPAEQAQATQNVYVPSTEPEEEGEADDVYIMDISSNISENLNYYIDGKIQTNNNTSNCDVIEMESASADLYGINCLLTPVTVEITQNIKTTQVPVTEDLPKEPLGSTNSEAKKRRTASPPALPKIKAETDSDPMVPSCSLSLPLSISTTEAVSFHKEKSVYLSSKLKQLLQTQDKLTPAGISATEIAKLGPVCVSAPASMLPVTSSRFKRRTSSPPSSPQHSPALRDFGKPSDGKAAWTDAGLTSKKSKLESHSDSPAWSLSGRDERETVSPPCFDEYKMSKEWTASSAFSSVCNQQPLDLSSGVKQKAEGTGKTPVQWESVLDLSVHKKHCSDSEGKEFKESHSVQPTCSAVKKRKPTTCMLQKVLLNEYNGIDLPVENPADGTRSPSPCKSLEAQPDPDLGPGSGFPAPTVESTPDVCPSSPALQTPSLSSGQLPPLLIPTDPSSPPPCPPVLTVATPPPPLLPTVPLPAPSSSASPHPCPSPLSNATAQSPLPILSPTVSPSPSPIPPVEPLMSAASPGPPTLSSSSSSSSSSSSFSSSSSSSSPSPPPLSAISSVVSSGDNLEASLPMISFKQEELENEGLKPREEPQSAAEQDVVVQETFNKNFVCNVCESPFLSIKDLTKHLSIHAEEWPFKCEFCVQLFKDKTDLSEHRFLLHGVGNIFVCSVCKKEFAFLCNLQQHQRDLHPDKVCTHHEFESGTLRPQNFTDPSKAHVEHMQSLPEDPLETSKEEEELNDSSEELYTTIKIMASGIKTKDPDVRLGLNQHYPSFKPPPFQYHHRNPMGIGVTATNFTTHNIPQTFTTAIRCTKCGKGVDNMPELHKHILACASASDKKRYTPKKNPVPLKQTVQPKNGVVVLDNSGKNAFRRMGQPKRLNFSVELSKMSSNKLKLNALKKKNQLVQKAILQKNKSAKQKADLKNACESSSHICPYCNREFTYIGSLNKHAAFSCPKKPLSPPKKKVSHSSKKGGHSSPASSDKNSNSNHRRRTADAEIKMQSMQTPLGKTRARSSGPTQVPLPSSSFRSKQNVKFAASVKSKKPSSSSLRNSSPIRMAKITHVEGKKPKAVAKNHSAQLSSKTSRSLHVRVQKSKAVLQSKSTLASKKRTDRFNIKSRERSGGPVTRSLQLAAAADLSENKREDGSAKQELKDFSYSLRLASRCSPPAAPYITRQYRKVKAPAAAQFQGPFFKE

With `COc1cc(OC)cc(-c2noc(N3CCN(C)C4(CCN(c5ccnc(C)c5)CC4)C3)n2)c1` [MRK-740] the “∆ Tm (°C), DSF” value [1] was -0.4 °C, the “∆ Tm (°C), DSF” value [2] was -0.458 °C and the “∆ Tm (°C), DSF” value [3] was -0.633 °C. For the same molecule, the “∆ Tm (°C), DSF” value [4] was -2.3 °C, the “∆ Tm (°C), DSF” value [5] was -1.3 °C and the “∆ Tm (°C), DSF” value [6] was 1.4 °C. The “∆ Tm (°C), DSF” value [7] was -1.0 °C, the “∆ Tm (°C), DSF” value [8] was -1.1 °C and the “∆ Tm (°C), DSF” value [9] was -0.536 °C. The “∆ Tm (°C), DSF” value [10] was -0.9 °C, the “∆ Tm (°C), DSF” value [11] was -0.225 °C and the “H3K4me3/endogenousH3 - western blot” value ([12]; 0.256 µM) was 93.518 % control and 101.99 % control and 96.0071 % control. The “H3K4me3/endogenousH3 - western blot” value ([12]; 0.64 µM) was 97.4527 % control and 97.7629 % control and 94.1624 % control, the “H3K4me3/endogenousH3 - western blot” value ([12]; 1.6 µM) was 94.826 % control and 91.8208 % control and 93.3575 % control and the “H3K4me3/endogenousH3 - western blot” value ([12]; 4 µM) was 91.0956 % control and 84.7178 % control and 90.9069 % control. The “H3K4me3/endogenousH3 - western blot” value ([12]; 10 µM) was 88.6856 % control and 79.3861 % control and 84.4562 % control, the “MCF7 cell viability (in words)” value ([13]; 10 µM, 5-day proliferation assay) was “minimal impact on MCF7 cell viability” and the “Cell growth (Cell#)” value ([13]; 0.3 µM) was 106.53 % control and 74.2747 % control and 75.9554 % control. The “Cell growth (Cell#)” value ([13]; 1 µM) was 111.892 % control and 99.8066 % control and 82.4385 % control, the “Cell growth (Cell#)” value ([13]; 3 µM) was 103.969 % control and 69.7125 % control and 102.608 % control and the “Cell growth (Cell#)” value ([13]; 10 µM) was 66.6711 % control and 77.6362 % control and 64.0299 % control. For the same molecule, the “Cell growth (Cell#)” value ([13]; 20 µM) was 36.7371 % control and 35.4566 % control and 42.0196 % control.
